Measured values as given in the supplement of paper PMC4932681.

Experiments:
[1] = system: T-47D Tam1; assay: relative IC50 (midpoint of fitted logistic curve, plateau may be below 50% inhibition; CellTiter-Glo viability); higher = less potent; details: 4-OH-tamoxifen in medium 1 µM; 72 h
Description: (§1)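 FIMM FO2B library drugs were plated at 5 concentrations spanning a 10,000-fold range in 384-well plates. Cells were incubated for 72 h at 37 °C and viability was read by CellTiter-Glo, normalised to DMSO (0% inhibition) and 100 µM benzethonium chloride (100% inhibition). IC50 values come from logistic dose-response fits (Breeze pipeline). Tamoxifen-resistant lines and the 'in 1µM tamoxifen' parental arms were tested in medium with 1 µM 4-OH-tamoxifen.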

[2] = system: T-47D; assay: as above; details: 72 h
Description: as §1

[3] = system: ZR-75-1; assay: as above; details: 72 h
Description: as §1

[4] = system: BT-474; assay: as above; details: 72 h
Description: as §1

[5] = system: MCF-7 Tam1; assay: as above; details: 4-OH-tamoxifen in medium 1 µM; 72 h
Description: as §1

[6] = system: BT-474 Tam2; assay: as above; details: 4-OH-tamoxifen in medium 1 µM; 72 h
Description: as §1

[7] = system: ZR-75-1 Tam2; assay: as above; details: 4-OH-tamoxifen in medium 1 µM; 72 h
Description: as §1

[8] = system: BT-474 Tam1; assay: as above; details: 4-OH-tamoxifen in medium 1 µM; 72 h
Description: as §1

[9] = system: ZR-75-1 Tam1; assay: as above; details: 4-OH-tamoxifen in medium 1 µM; 72 h
Description: as §1

[10] = system: T-47D Tam1; assay: drug sensitivity score (DSS) (DSS (dimensionless)); higher = more sensitive; extreme values may be limits of the assay; details: 4-OH-tamoxifen in medium 1 µM; 72 h
Description: (§2)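 FIMM FO2B library drugs were tested at 5 concentrations (10,000-fold range) for 72 h, with CellTiter-Glo viability normalised to DMSO and benzethonium chloride controls. The Drug Sensitivity Score (DSS) is computed from the fitted logistic dose-response curve (area-based; 0 = inactive). Resistant lines and the 'in 1µM tamoxifen' arms were tested in 1 µM 4-OH-tamoxifen.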

[11] = system: T-47D Tam2; assay: as above; details: 4-OH-tamoxifen in medium 1 µM; 72 h
Description: as §2

[12] = system: T-47D; assay: as above; details: 72 h
Description: as §2

[13] = system: ZR-75-1; assay: as above; details: 72 h
Description: as §2

[14] = system: BT-474; assay: as above; details: 72 h
Description: as §2

[15] = system: MCF-7 Tam1; assay: as above; details: 4-OH-tamoxifen in medium 1 µM; 72 h
Description: as §2

[16] = system: BT-474 Tam2; assay: as above; details: 4-OH-tamoxifen in medium 1 µM; 72 h
Description: as §2

[17] = system: ZR-75-1 Tam2; assay: as above; details: 4-OH-tamoxifen in medium 1 µM; 72 h
Description: as §2

[18] = system: BT-474 Tam1; assay: as above; details: 4-OH-tamoxifen in medium 1 µM; 72 h
Description: as §2

[19] = system: MCF-7; assay: as above; details: 72 h
Description: as §2

[20] = system: ZR-75-1 Tam1; assay: as above; details: 4-OH-tamoxifen in medium 1 µM; 72 h
Description: as §2

[21] = system: MCF-7; assay: relative IC50 (midpoint of fitted logistic curve, plateau may be below 50% inhibition; CellTiter-Glo viability); higher = less potent; details: 72 h
Description: as §1

SMILES | relative IC50 [1] | relative IC50 ([2]; 4-OH-tamoxifen in medium 0 µM) | relative IC50 ([2]; 4-OH-tamoxifen in medium 1 µM) | relative IC50 ([3]; 4-OH-tamoxifen in medium 0 µM) | relative IC50 ([4]; 4-OH-tamoxifen in medium 0 µM) | relative IC50 ([4]; 4-OH-tamoxifen in medium 1 µM) | relative IC50 [5] | relative IC50 [6] | relative IC50 [7] | relative IC50 [8] | relative IC50 [9] | drug sensitivity score [10] | drug sensitivity score [11] | drug sensitivity score ([12]; 4-OH-tamoxifen in medium 0 µM) | drug sensitivity score ([12]; 4-OH-tamoxifen in medium 1 µM) | drug sensitivity score ([13]; 4-OH-tamoxifen in medium 0 µM) | drug sensitivity score ([13]; 4-OH-tamoxifen in medium 1 µM) | drug sensitivity score ([14]; 4-OH-tamoxifen in medium 0 µM) | drug sensitivity score ([14]; 4-OH-tamoxifen in medium 1 µM) | drug sensitivity score [15] | drug sensitivity score [16] | drug sensitivity score [17] | drug sensitivity score [18] | drug sensitivity score ([19]; 4-OH-tamoxifen in medium 0 µM) | drug sensitivity score ([19]; 4-OH-tamoxifen in medium 1 µM) | drug sensitivity score [20] | relative IC50 ([3]; 4-OH-tamoxifen in medium 1 µM) | relative IC50 ([21]; 4-OH-tamoxifen in medium 0 µM) | relative IC50 ([21]; 4-OH-tamoxifen in medium 1 µM)
CCc1c2c(nc3ccc(OC(=O)N4CCC(N5CCCCC5)CC4)cc13)-c1cc3c(c(=O)n1C2)COC(=O)[C@]3(O)CC [Irinotecan] | 1.73 µM | 1.24 µM | > 10 µM | 1.71 µM | > 10 µM | > 10 µM | > 10 µM | > 10 µM | 1.59 µM | > 10 µM | 1.39 µM | 2.72 | 0.581 | 4.39 | 0 | 3.43 | 1.34 | 0 | 0 | 0 | 0 | 3.94 | 0 | 1.56 | 1.5 | 3.21 | – | – | –
NC(=O)c1ccc(I)c([N+](=O)[O-])c1 | > 10 µM | > 10 µM | > 10 µM | > 10 µM | > 10 µM | > 10 µM | > 10 µM | > 10 µM | > 10 µM | > 10 µM | – | 0 | 0.229 | 0 | 0 | 0 | 0 | 0 | 0 | 0 | 0 | 0 | 0 | 0 | 0 | 0 | > 10 µM | > 10 µM | > 10 µM
Cc1ccc(NC(=O)c2ccc(CN3CCN(C)CC3)cc2)cc1Nc1nccc(-c2cccnc2)n1 [Imatinib] | > 10 µM | – | > 10 µM | > 10 µM | > 10 µM | – | > 10 µM | – | > 10 µM | 4.03 µM | > 10 µM | 0 | 0.454 | 0 | 0 | 0 | 0.933 | 0 | 0.471 | 0 | 1.21 | 0 | 1.97 | 0 | 0 | 0 | – | > 10 µM | –
O=C(c1cc(Cc2n[nH]c(=O)c3ccccc23)ccc1F)N1CCN(C(=O)C2CC2)CC1 [Olaparib] | > 10 µM | – | > 10 µM | > 10 µM | > 10 µM | > 10 µM | > 10 µM | > 10 µM | > 10 µM | – | > 10 µM | 0 | 0.0505 | 0 | 0 | 0 | 0 | 0 | 0 | 0 | 0 | 0 | 0.0009 | 0 | 0.285 | 0 | > 10 µM | > 10 µM | –
COC(=O)c1ccc2c(c1)NC(=O)/C2=C(\Nc1ccc(N(C)C(=O)CN2CCN(C)CC2)cc1)c1ccccc1 [Nintedanib (BIBF 1120)] | > 10 µM | > 10 µM | > 10 µM | > 10 µM | > 10 µM | – | > 10 µM | > 10 µM | > 10 µM | 0.155 µM | – | 0 | 0.209 | 0 | 0 | 0 | 0 | 0 | 3.83 | 0 | 0 | 0 | 7.37 | 0.34 | 0 | 0 | > 10 µM | – | > 10 µM
Cc1ccc(-c2cc(C(F)(F)F)nn2-c2ccc(S(N)(=O)=O)cc2)cc1 [Celecoxib] | > 10 µM | > 10 µM | > 10 µM | > 10 µM | > 10 µM | > 10 µM | > 10 µM | > 10 µM | > 10 µM | – | > 10 µM | 0 | 0.335 | 0 | 0 | 0 | 0.0083 | 0 | 0 | 0 | 0 | 0 | 0.0337 | 0.0979 | 0 | 0 | – | – | > 10 µM
CN1CCN(CCOc2cc(OC3CCOCC3)c3c(Nc4c(Cl)ccc5c4OCO5)ncnc3c2)CC1 [Saracatinib] | 0.504 µM | – | > 10 µM | > 10 µM | 2.15 µM | 1.29 µM | > 10 µM | 1.35 µM | > 10 µM | 1.17 µM | > 10 µM | 5.37 | 3.11 | 1.32 | 0 | 0 | 0 | 3.72 | 9.8 | 0 | 10.1 | 0 | 10.8 | 2.15 | 0.814 | 0 | > 10 µM | – | –
